Measured values taken from patent publication US6110962A, “11-aryl-benzo[B]naphtho[2,3-D]furans and 11-aryl-benzo[B]naphtho[2,3-D]thiophenes useful in the treatment of insulin resistance and hyperglycemia” (American Home Products Corporation, priority 1999, dated 2000).

Key:
[1] = system: rat hepatic microsomal PTPases; details: PTPase activity, compound at 50 μM
Human recombinant PTP1B = biological target: T1, Human recombinant PTP1B (Homo sapiens, UniProt P18031); assay type: biochemical; details: read-out: IC50
T1 construct: made in house
T1 sequence (P18031 1-435): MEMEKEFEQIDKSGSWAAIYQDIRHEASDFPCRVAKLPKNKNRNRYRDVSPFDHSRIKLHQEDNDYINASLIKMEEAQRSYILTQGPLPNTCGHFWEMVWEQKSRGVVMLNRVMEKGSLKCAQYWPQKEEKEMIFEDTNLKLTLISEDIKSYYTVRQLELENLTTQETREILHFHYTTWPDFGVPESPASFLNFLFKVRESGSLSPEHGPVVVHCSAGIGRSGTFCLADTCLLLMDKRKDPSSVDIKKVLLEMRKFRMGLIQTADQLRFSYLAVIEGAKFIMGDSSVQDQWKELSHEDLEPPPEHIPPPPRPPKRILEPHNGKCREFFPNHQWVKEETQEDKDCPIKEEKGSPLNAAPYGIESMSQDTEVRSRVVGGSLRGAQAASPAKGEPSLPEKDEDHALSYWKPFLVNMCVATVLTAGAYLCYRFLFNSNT

Row | Compound | % Change from Control [1] [%] | IC50 (Human recombinant PTP1B) [nM]
1 | O=C(O)C(Cc1ccc2ccccc2c1)Oc1c(Br)cc(-c2c3ccccc3c(Br)c3sc4ccccc4c23)cc1Br (centres unmarked) [Example 156, 2-[2,6-Dibromo-4-(6-bromo-benzo[b]naphtho[2,3-d]thiophen-11-yl)-phenoxy]-3-naphthalen-2yl-propionic acid] | -71.12 | 26
2 | O=C(O)[C@@H](Cc1ccccc1)Oc1c(Cl)cc(-c2c3ccccc3c(Br)c3sc4ccccc4c23)cc1Cl [Example 130, (R)-2-[2,6-Dichloro-4-(6-bromo-benzo[b]naphtho[2,3-d]thiophen-11-yl)-phenoxy]l-3-phenyl-propionic acid] | -72.14 | 800
3 | O=C(O)[C@@H](Cc1ccccc1)Oc1c(Br)cc(-c2c3ccccc3c(Sc3ccncc3)c3sc4ccccc4c23)cc1Br [Example 134, (R)-2-{2,6-Dibromo-4-[6-(pyridin-4-ylsulfanyl)-benzo[b]naphtho[2,3-d]thiophen-11-yl]-phenoxy}-3-phenyl-propionic acid] | -69.86 | 93
4 | Oc1c(F)ccc(-c2c3ccccc3c(Br)c3sc4ccccc4c23)c1F [Example 200, 3-(6-Bromo-benzo[b]naphtho[2,3-d]thiophen-11-yl)-2,6 difluoro-phenol] | -50.62 | 1170
5 | Oc1ccc(-c2c3ccccc3c(Br)c3sc4ccccc4c23)cc1O [Example 43, 4-(6-bromo-benzo[b]naphtho[2,3-d]thiophen-11-yl)-benzene-1,2-diol] | -14.62 | 189
6 | O=P(O)(O)COc1c(Br)cc(-c2c3ccccc3c(Br)c3sc4ccccc4c23)cc1Br [Example 162, [2,6-Dibromo-4-(6-bromo-benzo[b]naphtho[2,3-d]thiophen-11-yl)-phenoxymethyl]-phosphonic acid] | -60.67 | 145
7 | N#Cc1cc(-c2c3ccccc3cc3sc4ccccc4c23)ccc1OCC(=O)O [Example 82, [(4-benzo[b]naphtho[2,3-d]thiophen-11-yl)-2-cyano-phenoxy]-acetic acid] | -39.80 | 2000
8 | COc1c(Br)cc(-c2c3ccccc3c(Br)c3sc4ccccc4c23)cc1O[C@H](Cc1ccccc1)C(=O)O [Example 196, (R)-2-[3-Bromo-5-(6-bromo-benzo[b]naphtho[2,3-d]thiophen-11-yl)-2-methoxy-phenoxy]-3-phenyl-propionic acid] | -80.08 | 174
9 | O=C(O)COc1cc(-c2c3ccccc3c(Br)c3sc4ccccc4c23)ccc1Br [Example 91, [2-Bromo-5-(6-bromo-benzo[b]naphtho[2,3-d]thiophen-11-yl)-phenoxyl]-acetic acid] | -97.10 | 1300
10 | O=C(O)CCOc1c(Br)cc(-c2c3ccccc3c(Br)c3sc4ccccc4c23)cc1Br [Example 179] | -66.27 | 203
11 | O=C(O)[C@@H](Cc1ccccc1)Oc1c(Br)cc(-c2c3ccccc3c(OCc3ccccc3)c3sc4ccccc4c23)cc1Br [Example 184, (R)-2-[4-(6-Benzyloxy-benzo[b]naphtho[2,3-d]thiophen-11-yl]-2-6-dibromo-phenoxy}-3-phenyl-propionic acid] | -46.44 | 45
12 | Oc1cc(Br)c(-c2c3ccccc3c(Br)c3sc4ccccc4c23)cc1O [Example 71, 4-Bromo-5-(6-bromo-benzo[b]naphtho[2,3-d]thiophen-11-yl)-benzene-1,2-diol] | -35.74 | 79
13 | C[C@H](Oc1cc(-c2c3ccccc3c(Br)c3sc4ccccc4c23)ccc1Br)C(=O)O [Example 143, (S)-2-[2-Bromo-5-(6-bromo-benzo[b]naphtho[2,3-d]thiophen-11-yl)-phenoxyl]-propionic acid] | -76.98 | 1170
14 | CC(C)c1cc(-c2c3ccccc3c(Br)c3sc4ccccc4c23)cc(C(C)C)c1O[C@H](C)C(=O)O [Example 140, (R)-2-[4-(6-Bromo-benzo[b]naphtho[2,3-d]thiophen-11-yl)-2,6-diisopropyl-phenoxy)-propionic acid] | -71.19 | 204
15 | Brc1cc(-c2c3ccccc3c(Br)c3sc4ccccc4c23)cc(Br)c1OCc1nnn[nH]1 [Example 171, 5-[2,6-Dibromo-4-(6-bromo-benzo[b]naphtho[2,3-d]thiophen-11-yl)-phenoxymethyl]-1 H-tetrazole] | -71.04 | 302
16 | Oc1c(Br)cc(-c2c3ccccc3c(Sc3ccccc3)c3sc4ccccc4c23)cc1Br [Example 64, 2,6-Dibromo-4-(6-phenylsulfanyl-benzo[b]naphtho[2,3-d]thiophen-11-yl)-pheno] | -15.90 | 347
17 | C[C@@H](Oc1c(I)cc(-c2c3ccccc3cc3sc4ccccc4c23)cc1I)C(=O)O [Example 132, (R)-2-(4-Benzo[b]naphtho[2,3-d]thiophen-11-yl-2,6-diiodo-phenoxy)-propionicacid] | -49.27 | 311
18 | Oc1c(Br)cc(-c2c3ccccc3c(I)c3sc4ccccc4c23)cc1Br [Example 59, 2,6-Dibromo-4-(6-iodo-benzo[b]naphtho[2,3-d]thiophen-11-yl)-phenol] | -35.46 | 612
19 | Oc1ccc(-c2c3ccccc3cc3sc4ccccc4c23)cc1O [Example 18, 4-(Benzo[b]naphtho[2,3-d]thiophen-11-yl)-benzene-1,2-diol] | -15.22 | 554
20 | C[C@H](CC(=O)O)Oc1c(Br)cc(-c2c3ccccc3c(Br)c3sc4ccccc4c23)cc1Br [Example 180] | -50.64 | 384
21 | O=C(O)[C@@H](CCN1Cc2ccccc2C1=O)Oc1c(Br)cc(-c2c3ccccc3c(Br)c3sc4ccccc4c23)cc1Br [Example 124, (2R)-2-[2,6-Dibromo-4-(6-bromo-benzo[b]naphtho[2,3-d]thiophen-11-yl)-phenoxy]-4-(1-oxo-1,3-dihydro-isoindol-2-yl)-butyric acid] | -70.01 | 85
22 | CN(C)CCSc1c2ccccc2c(-c2cc(Br)c(O[C@H](Cc3ccccc3)C(=O)O)c(Br)c2)c2c1sc1ccccc12 [Example 133, (R)-2-{2,6-Dibromo-4-[6-(2-dimethylamino-ethylsulfanyl)-benzo[b]naphtho[2,3-d]thiophen-11-yl]-phenoxy}-3-phenyl-propionic acid] | -27.89 | 506
23 | CC(C)(Oc1c(Br)cc(-c2c3ccccc3c(Br)c3sc4ccccc4c23)cc1Br)C(=O)O [Example 178, 2-[2,6-Dibromo-4-(6-bromo-benzo[b]naphtho[2,3-d]thiophen-11-yl)-phenoxy]-2-methyl-propionic acid] | -42.41 | 480
24 | O=C(O)[C@H](Oc1c(Br)cc(-c2c3ccccc3c(Br)c3sc4ccccc4c23)cc1Br)c1ccccc1 [Example 142, (R)-[2,6-Dibromo-4-(6-bromo-benzo[b]naphtho[2,3-d]thiophen-11-yl)-phenoxy]-phenyl-acetic acid] | -104.68 | 103
25 | O=C(O)[C@@H](CCN1C(=O)c2ccccc2C1=O)Oc1ccc(-c2c3ccccc3cc3sc4ccccc4c23)cc1 [Example 148] | -82.62 | 1230
